Source: ChEMBL document CHEMBL1151598, “Synthesis of in vivo potent antimalarial 1,2,4-trioxanes” (Bioorg Med Chem Lett, 1992)
Calls of active or inactive are those of the source. No cut-off for these calls is given here.

Key:
[1] = system: Mus musculus; experiment: Compound was tested for in vivo antimalarial activity against Plasmodium berghei in male mice (Mus musculus) at dose of 90 mg/kg (intraperitoneal); A - Active; format: functional, organism-based; set-up: dose 90 mg/kg
[2] = system: Mus musculus; experiment: Compound was tested for in vivo antimalarial activity against Plasmodium berghei in male mice (Mus musculus) at dose of 30 mg/kg (ip); A - Active; format: functional, organism-based; set-up: dose 30 mg/kg

Q: How did the Activity [1] turn out when `C=C(c1ccccc1)C1COC2(OO1)C1CC3CC(C1)CC2C3` (stereo not drawn) was run?
A: Its Activity is “Active”.

Q: `C=C(c1ccc(C)cc1)C1COC2(OO1)C1CC3CC(C1)CC2C3` (stereo not drawn) was tested. Which Activity [1] did it give?
A: Its Activity is “Active”.

Q: For `C=C(c1ccc(OC)cc1)C1COC2(OO1)C1CC3CC(C1)CC2C3` (stereo not drawn), which Activity [1] is on record?
A: The Activity was “Active”.

Q: What about the Activity [2] of the same molecule?
A: The Activity was “Active”.

Q: `C=C(c1ccc(Cl)cc1)C1COC2(OO1)C1CC3CC(C1)CC2C3` (stereo not drawn) was tested. Which Activity [1] did it give?
A: Its Activity is “Active”.

Q: And the Activity [2]?
A: The Activity was “Active”.

Q: Which Activity [1] does the source give for `C=C(c1ccc(F)cc1)C1COC2(OO1)C1CC3CC(C1)CC2C3` (stereo not drawn) here?
A: The Activity was “Active”.

Q: `C=C(c1ccc(C)cc1C)C1COC2(OO1)C1CC3CC(C1)CC2C3` (stereo not drawn) was tested. Which Activity [1] did it give?
A: Its Activity is “Active”.
